# How the values were obtained:
# Type in all cases: in vivo
# [1] = system: barnyardgrass (Echinochloa crus-galli); assay: Test A postemergence
# Outline: (§1)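 Ratings of 0 (no effect) to 100 (complete control) come from visual comparison with untreated controls roughly 10 d after treatment. Test chemicals, formulated in a non-phytotoxic solvent mixture with surfactant, were applied either as a preemergence directed soil spray on seeded soil or postemergence to one- to two-leaf plants 2 to 10 cm tall.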
# [2] = system: corn (Zea mays); assay: Test A postemergence
# Outline: as §1
# [3] = system: pigweed (Amaranthus retroflexus); assay: Test A postemergence
# Outline: as §1
# [4] = system: velvetleaf (Abutilon theophrasti); assay: Test A postemergence
# Outline: as §1
# [5] = system: crabgrass, large (Digitaria sanguinalis); assay: Test A postemergence
# Outline: as §1
# [6] = system: wheat (Triticum aestivum); assay: Test A postemergence
# Outline: as §1
# [7] = system: giant foxtail (Setaria faberii); assay: Test A postemergence
# Outline: as §1
# [8] = system: morningglory (Ipomoea spp.); assay: Test A postemergence
# Outline: as §1
# [9] = system: barnyardgrass (Echinochloa crus-galli); assay: Test A preemergence; settings: for Plant response rating, Barnyardgrass: 125 g ai/ha, preemergence, 0 to 100 scale (0 no effect, 100 complete control); for Barnyardgrass plant response rating (0 to 100 scale): Preemergence, 500 g ai/ha, 0 is no effect, 100 is complete control
# Outline: as §1
# [10] = system: corn (Zea mays); assay: Test A preemergence; settings: for Plant response rating, Corn: 125 g ai/ha, preemergence, 0 to 100 scale (0 no effect, 100 complete control); for Corn plant response rating (0 to 100 scale): Preemergence, 500 g ai/ha, 0 is no effect, 100 is complete control
# Outline: as §1
# [11] = system: pigweed (Amaranthus retroflexus); assay: Test A preemergence; settings: for Plant response rating, Pigweed: 125 g ai/ha, preemergence, 0 to 100 scale (0 no effect, 100 complete control); for Pigweed plant response rating (0 to 100 scale): Preemergence, 500 g ai/ha, 0 is no effect, 100 is complete control
# [12] = system: velvetleaf (Abutilon theophrasti); assay: Test A preemergence; settings: for Plant response rating, Velvetleaf: 125 g ai/ha, preemergence, 0 to 100 scale (0 no effect, 100 complete control); for Velvetleaf plant response rating (0 to 100 scale): Preemergence, 500 g ai/ha, 0 is no effect, 100 is complete control
# Outline: as §1
# [13] = system: crabgrass, large (Digitaria sanguinalis); assay: Test A preemergence; settings: for Plant response rating, Crabgrass, Large: 125 g ai/ha, preemergence, 0 to 100 scale (0 no effect, 100 complete control); for Crabgrass, Large plant response rating (0 to 100 scale): Preemergence, 500 g ai/ha, 0 is no effect, 100 is complete control
# Outline: as §1
# [14] = system: wheat (Triticum aestivum); assay: Test A preemergence; settings: for Plant response rating, Wheat: 125 g ai/ha, preemergence, 0 to 100 scale (0 no effect, 100 complete control); for Wheat plant response rating (0 to 100 scale): Preemergence, 500 g ai/ha, 0 is no effect, 100 is complete control
# Outline: as §1
# [15] = system: giant foxtail (Setaria faberii); assay: Test A preemergence; settings: for Plant response rating, Foxtail, Giant: 125 g ai/ha, preemergence, 0 to 100 scale (0 no effect, 100 complete control); for Foxtail, Giant plant response rating (0 to 100 scale): Preemergence, 500 g ai/ha, 0 is no effect, 100 is complete control
# Outline: as §1
# [16] = system: morningglory (Ipomoea spp.); assay: Test A preemergence; settings: for Plant response rating, Morningglory: 125 g ai/ha, preemergence, 0 to 100 scale (0 no effect, 100 complete control); for Morningglory plant response rating (0 to 100 scale): Preemergence, 500 g ai/ha, 0 is no effect, 100 is complete control
# Outline: as §1
# [17] = system: barnyardgrass (Echinochloa crus-galli); assay: Test C flooded paddy test; settings: Flood, 0 is no effect, 100 is complete control
# Outline: (§2)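 Visual 0–100 injury rating versus controls (0 = no effect, 100 = complete control) at 13 to 15 d. 2-leaf-stage plants; pots flooded 3 cm over soil surface, test compound added to paddy water; greenhouse.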
# [18] = system: ducksalad (Heteranthera limosa); assay: Test C flooded paddy test; settings: Flood, 0 is no effect, 100 is complete control
# Outline: as §2
# [19] = system: rice (Oryza sativa); assay: Test C flooded paddy test; settings: Flood, 0 is no effect, 100 is complete control
# Outline: as §2
# [20] = system: sedge, umbrella (small-flower umbrella sedge, Cyperus difformis); assay: Test C flooded paddy test; settings: Flood, 0 is no effect, 100 is complete control
# Outline: as §2
# [21] = system: rice (Oryra sativa); assay: Test B flooded paddy test; settings: Flood, 250 g ai/ha; 0 to 100 scale where 0 is no effect and 100 is complete control; 13 to 15 d
# Outline: (§3)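 Percent control, visually estimated after 13–15 d in the greenhouse on a 0–100 basis, compares treated pots with untreated ones; compound was put into paddy water 3 cm above the soil when plants had two leaves.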
# [22] = system: barnyardgrass (Echinochloa crus-galli); assay: Test B flooded paddy test; settings: Flood, 250 g ai/ha; 0 to 100 scale where 0 is no effect and 100 is complete control; 13 to 15 d
# Outline: as §3
# [23] = system: ducksalad (Heteranthera limosa); assay: Test B flooded paddy test; settings: Flood, 250 g ai/ha; 0 to 100 scale where 0 is no effect and 100 is complete control; 13 to 15 d
# Outline: as §3
# [24] = system: sedge, umbrella (small-flower umbrella sedge, Cyperus difformis); assay: Test B flooded paddy test; settings: Flood, 250 g ai/ha; 0 to 100 scale where 0 is no effect and 100 is complete control; 13 to 15 d
# Outline: as §3
# [25] = 500 g ai/ha, postemergence, 0 to 100 scale, 0 no effect, 100 complete control
# [26] = Postemergence, 125 g ai/ha, visual injury, 0 to 100 scale (0 no effect, 100 complete control), approx. 10 d
smiles,measurement,setting,value
O=C1NCC(c2ccoc2)C1C(=O)Nc1ccccc1F (racemic) [Compound 356],"Plant response rating, Barnyardgrass",[1]; [25],0
same,"Plant response rating, Barnyardgrass",[1]; [26],0
same,"Plant response rating, Corn",[2]; [25],0
same,"Plant response rating, Corn",[2]; [26],0
same,"Plant response rating, Pigweed",[3]; [25],0
same,"Plant response rating, Pigweed",[3]; [26],0
same,"Plant response rating, Velvetleaf",[4]; [25],0
same,"Plant response rating, Velvetleaf",[4]; [26],0
same,"Plant response rating, Crabgrass, Large",[5]; [25],0
same,"Plant response rating, Crabgrass, Large",[5]; [26],0
same,"Plant response rating, Wheat",[6]; [25],0
same,"Plant response rating, Wheat",[6]; [26],0
same,"Plant response rating, Foxtail, Giant",[7]; [25],0
same,"Plant response rating, Foxtail, Giant",[7]; [26],0
same,"Plant response rating, Morningglory",[8]; [25],0
same,"Plant response rating, Morningglory",[8]; [26],0
same,"Plant response rating, Barnyardgrass",[9],0
same,Barnyardgrass plant response rating (0 to 100 scale),[9],0
same,"Plant response rating, Corn",[10],0
same,Corn plant response rating (0 to 100 scale),[10],0
same,"Plant response rating, Pigweed",[11],0
same,Pigweed plant response rating (0 to 100 scale),[11],0
same,"Plant response rating, Velvetleaf",[12],0
same,Velvetleaf plant response rating (0 to 100 scale),[12],0
same,"Plant response rating, Crabgrass, Large",[13],0
same,"Crabgrass, Large plant response rating (0 to 100 scale)",[13],0
same,"Plant response rating, Wheat",[14],0
same,Wheat plant response rating (0 to 100 scale),[14],0
same,"Plant response rating, Foxtail, Giant",[15],0
same,"Foxtail, Giant plant response rating (0 to 100 scale)",[15],0
same,"Plant response rating, Morningglory",[16],0
same,Morningglory plant response rating (0 to 100 scale),[16],0
same,"Plant response rating (scale of 0 to 100), Barnyardgrass",[17]; 62 g ai/ha,0
same,"Plant response rating (scale of 0 to 100), Barnyardgrass",[17]; 250 g ai/ha,0
same,"Plant response rating (scale of 0 to 100), Ducksalad",[18]; 62 g ai/ha,0
same,"Plant response rating (scale of 0 to 100), Ducksalad",[18]; 250 g ai/ha,0
same,"Plant response rating (scale of 0 to 100), Rice",[19]; 62 g ai/ha,0
same,"Plant response rating (scale of 0 to 100), Rice",[19]; 250 g ai/ha,0
same,"Plant response rating (scale of 0 to 100), Sedge, Umbrella",[20]; 62 g ai/ha,0
same,"Plant response rating (scale of 0 to 100), Sedge, Umbrella",[20]; 250 g ai/ha,0
O=C1NCC(c2ccoc2)C1C(=O)Nc1ccccc1C(F)(F)F (racemic) [Compound 364],"Plant response rating, Barnyardgrass",[1]; [25],0
same,"Plant response rating, Barnyardgrass",[1]; [26],0
same,"Plant response rating, Corn",[2]; [25],0
same,"Plant response rating, Corn",[2]; [26],0
same,"Plant response rating, Pigweed",[3]; [25],0
same,"Plant response rating, Pigweed",[3]; [26],0
same,"Plant response rating, Velvetleaf",[4]; [25],0
same,"Plant response rating, Crabgrass, Large",[5]; [25],0
same,"Plant response rating, Crabgrass, Large",[5]; [26],0
same,"Plant response rating, Wheat",[6]; [25],0
same,"Plant response rating, Wheat",[6]; [26],0
same,"Plant response rating, Foxtail, Giant",[7]; [25],0
same,"Plant response rating, Foxtail, Giant",[7]; [26],0
same,"Plant response rating, Morningglory",[8]; [25],0
same,"Plant response rating, Morningglory",[8]; [26],0
same,"Plant response rating, Barnyardgrass",[9],0
same,Barnyardgrass plant response rating (0 to 100 scale),[9],0
same,"Plant response rating, Corn",[10],0
same,Corn plant response rating (0 to 100 scale),[10],0
same,"Plant response rating, Pigweed",[11],0
same,Pigweed plant response rating (0 to 100 scale),[11],0
same,"Plant response rating, Velvetleaf",[12],0
same,Velvetleaf plant response rating (0 to 100 scale),[12],0
same,"Plant response rating, Crabgrass, Large",[13],0
same,"Crabgrass, Large plant response rating (0 to 100 scale)",[13],0
same,"Plant response rating, Wheat",[14],0
same,Wheat plant response rating (0 to 100 scale),[14],0
same,"Plant response rating, Foxtail, Giant",[15],0
same,"Foxtail, Giant plant response rating (0 to 100 scale)",[15],0
same,"Plant response rating, Morningglory",[16],0
same,Morningglory plant response rating (0 to 100 scale),[16],0
same,"Plant response rating (scale of 0 to 100), Barnyardgrass",[17]; 31 g ai/ha,0
same,"Plant response rating (scale of 0 to 100), Barnyardgrass",[17]; 62 g ai/ha,0
same,"Plant response rating (scale of 0 to 100), Barnyardgrass",[17]; 125 g ai/ha,0
same,"Plant response rating (scale of 0 to 100), Barnyardgrass",[17]; 250 g ai/ha,0
same,"Plant response rating (scale of 0 to 100), Ducksalad",[18]; 31 g ai/ha,0
same,"Plant response rating (scale of 0 to 100), Ducksalad",[18]; 62 g ai/ha,0
same,"Plant response rating (scale of 0 to 100), Ducksalad",[18]; 125 g ai/ha,0
same,"Plant response rating (scale of 0 to 100), Ducksalad",[18]; 250 g ai/ha,0
same,"Plant response rating (scale of 0 to 100), Rice",[19]; 31 g ai/ha,0
same,"Plant response rating (scale of 0 to 100), Rice",[19]; 62 g ai/ha,0
same,"Plant response rating (scale of 0 to 100), Rice",[19]; 125 g ai/ha,0
same,"Plant response rating (scale of 0 to 100), Rice",[19]; 250 g ai/ha,0
same,"Plant response rating (scale of 0 to 100), Sedge, Umbrella",[20]; 31 g ai/ha,0
same,"Plant response rating (scale of 0 to 100), Sedge, Umbrella",[20]; 62 g ai/ha,0
same,"Plant response rating (scale of 0 to 100), Sedge, Umbrella",[20]; 125 g ai/ha,0
same,"Plant response rating (scale of 0 to 100), Sedge, Umbrella",[20]; 250 g ai/ha,0
Nc1cccc(C2CNC(=O)C2C(=O)Nc2cccc(F)c2F)c1 (stereo not drawn) [Compound 354],"Plant response rating, Barnyardgrass",[1]; [25],0
same,"Plant response rating, Barnyardgrass",[1]; [26],0
same,"Plant response rating, Corn",[2]; [25],0
same,"Plant response rating, Corn",[2]; [26],0
same,"Plant response rating, Pigweed",[3]; [25],0
same,"Plant response rating, Pigweed",[3]; [26],0
same,"Plant response rating, Velvetleaf",[4]; [25],0
same,"Plant response rating, Velvetleaf",[4]; [26],0
same,"Plant response rating, Crabgrass, Large",[5]; [25],0
same,"Plant response rating, Crabgrass, Large",[5]; [26],0
same,"Plant response rating, Wheat",[6]; [25],0
same,"Plant response rating, Wheat",[6]; [26],0
same,"Plant response rating, Foxtail, Giant",[7]; [25],0
same,"Plant response rating, Foxtail, Giant",[7]; [26],0
same,"Plant response rating, Morningglory",[8]; [25],0
same,"Plant response rating, Morningglory",[8]; [26],0
same,"Plant response rating, Barnyardgrass",[9],0
same,Barnyardgrass plant response rating (0 to 100 scale),[9],0
same,"Plant response rating, Corn",[10],0
same,Corn plant response rating (0 to 100 scale),[10],0
same,"Plant response rating, Pigweed",[11],0
same,Pigweed plant response rating (0 to 100 scale),[11],0
same,"Plant response rating, Velvetleaf",[12],0
same,Velvetleaf plant response rating (0 to 100 scale),[12],0
same,"Plant response rating, Crabgrass, Large",[13],0
same,"Crabgrass, Large plant response rating (0 to 100 scale)",[13],0
same,"Plant response rating, Wheat",[14],0
same,Wheat plant response rating (0 to 100 scale),[14],0
same,"Plant response rating, Foxtail, Giant",[15],0
same,"Foxtail, Giant plant response rating (0 to 100 scale)",[15],0
same,"Plant response rating, Morningglory",[16],0
same,Morningglory plant response rating (0 to 100 scale),[16],0
same,"Plant response rating, Rice",[21],20
same,"Plant response rating, Barnyardgrass",[22],0
same,"Plant response rating, Ducksalad",[23],0
same,"Plant response rating, Sedge, Umbrella",[24],20
